The assay concerns CD2F1 mice, L1210 leukemia ip, survival T/C. Briefly: NCI In Vivo Anticancer Drug Screen. Data for tumor model L1210 Leukemia (intraperitoneal) in CD2F1 (CDF1) mice. As to conditions: endpoint: mean survival time, higher = longer survival. Summed up: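 Compound-dosed mice with transplantable tumor versus matched vehicle controls; endpoint ratio T/C reported.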
Where [1] appears, read: dose: 100.0 mg/kg/injection, schedule: Q01DX001 (ip), vehicle: saline.
Setting [2] is: dose: 200.0 mg/kg/injection, schedule: Q01DX001 (ip), vehicle: saline.
The mark [3] stands for this setting: dose: 400.0 mg/kg/injection, schedule: Q01DX001 (ip), vehicle: saline.
Where [4] appears, read: dose: 6.25 mg/kg/injection, schedule: Q04DX003 (ip), vehicle: saline.
[5] abbreviates: dose: 12.5 mg/kg/injection, schedule: Q04DX003 (ip), vehicle: saline.
[6] abbreviates: dose: 25.0 mg/kg/injection, schedule: Q04DX003 (ip), vehicle: saline.
Where [7] appears, read: dose: 100.0 mg/kg/injection, schedule: Q04DX003 (ip), vehicle: saline.
The mark [8] stands for this setting: dose: 200.0 mg/kg/injection, schedule: Q04DX003 (ip), vehicle: saline.
The mark [9] stands for this setting: dose: 100.0 mg/kg/injection, schedule: Q04DX003 (ip), vehicle: saline with Tween-80.
Setting [10] is: dose: 200.0 mg/kg/injection, schedule: Q04DX003 (ip), vehicle: saline with Tween-80.
Where [11] appears, read: dose: 400.0 mg/kg/injection, schedule: Q04DX003 (ip), vehicle: saline with Tween-80.
Setting [12] is: dose: 100.0 mg/kg/injection, schedule: Q01DX009 (ip), vehicle: saline with Tween-80.
Setting [13] is: dose: 200.0 mg/kg/injection, schedule: Q01DX009 (ip), vehicle: saline with Tween-80.
[14] abbreviates: dose: 400.0 mg/kg/injection, schedule: Q01DX009 (ip), vehicle: saline with Tween-80.
The mark [15] stands for this setting: dose: 50.0 mg/kg/injection, schedule: Q04DX003 (ip), vehicle: saline.

“And” between values parts separate entries of the source, which are not always exact repeats. Equal values may be shown once. Inconclusive results and toxic doses are left out.

On to `CCCC1C(CC)C=NN1C` (stereo unspecified), for which the T/C runs as follows: under setting [1], 102 % of control; under setting [2], 101 % of control; under setting [3], 98 % of control.
As to `CCCC(CC)(C[NH-])C[NH-].[Cl][Pt+2][Cl]`, the T/C is, setting by setting: under setting [4], 120 % of control and 109 % of control; under setting [5], 121 % of control and 109 % of control; under setting [6], 114 % of control; under setting [7], 158 % of control; under setting [8], 114 % of control and 105 % of control.
For the compound `CC1(C)OCC(C2OC3OC(C)(C)OC3C2O)O1` (stereo unspecified), the T/C under setting [1] was 105 % of control; the T/C under setting [9] was 100 % of control; the T/C under setting [7] is 97 % of control; the T/C under setting [2] is 103 % of control; the T/C under setting [10] was 95 % of control; the T/C under setting [8] is 96 % of control. The T/C is 103 % of control under setting [3]; 103 % of control under setting [11]; 100 % of control (dose: 400.0 mg/kg/injection, schedule: Q04DX003 (ip), vehicle: saline).
On to `O=C(NC(=O)c1ccccc1)NS(=O)(=O)c1ccccc1`, for which the T/C is 113 % of control under setting [12], 109 % of control under setting [13] and 98 % of control under setting [14].
`Cc1ccc(S(=O)(=O)C2C=CC=CC=C2)cc1`: the T/C by setting is: (dose: 25.0 mg/kg/injection, schedule: Q01DX009 (ip), vehicle: saline with Tween-80) 98 % of control; (dose: 50.0 mg/kg/injection, schedule: Q01DX009 (ip), vehicle: saline with Tween-80) 98 % of control; under setting [12], 94 % of control.
Turning to `CC(=O)Oc1cccc(C(C)=O)c1`, the T/C runs as follows: under setting [9], 102 % of control; under setting [10], 100 % of control; under setting [11], 104 % of control.
Turning to `O=[N+]([O-])c1ccc(N/N=C(\CBr)c2ccccc2)c([N+](=O)[O-])c1`, the T/C was 101 % of control (dose: 100.0 mg/kg/injection, schedule: Q01DX001 (ip), vehicle: saline with Tween-80); 92 % of control (dose: 200.0 mg/kg/injection, schedule: Q01DX001 (ip), vehicle: saline with Tween-80); 93 % of control (dose: 400.0 mg/kg/injection, schedule: Q01DX001 (ip), vehicle: saline with Tween-80).
Take `O=C(O)C(=O)O.O=C(O)C(=O)O.OO.OO.[Nb]`: the T/C by setting is: (dose: 12.5 mg/kg/injection, schedule: Q01DX009 (ip), vehicle: water) 93 % of control; (dose: 25.0 mg/kg/injection, schedule: Q01DX009 (ip), vehicle: water) 98 % of control; (dose: 50.0 mg/kg/injection, schedule: Q01DX009 (ip), vehicle: water) 87 % of control.
In the case of `NCc1c(Cl)c(Cl)c(Cl)c(CN)c1Cl`, the T/C (dose: 50.0 mg/kg/injection, schedule: Q04DX003 (ip), vehicle: saline with Tween-80) is 100 % of control; the T/C under setting [9] is 100 % of control; the T/C under setting [10] was 98 % of control.
For `O=C(/C=C/c1ccccn1)c1ccc(Cl)cc1`, the T/C (dose: 100.0 mg/kg/injection, schedule: Q01DX001 (ip), vehicle: Klucel (hydroxypropylcellulose) (HPC)) was 97 % of control; the T/C (dose: 200.0 mg/kg/injection, schedule: Q01DX001 (ip), vehicle: Klucel (hydroxypropylcellulose) (HPC)) is 97 % of control; the T/C (dose: 400.0 mg/kg/injection, schedule: Q01DX001 (ip), vehicle: Klucel (hydroxypropylcellulose) (HPC)) was 105 % of control.
On to `OCC1(CO)COC2(CCCCC2)N1`, for which the T/C reads like this: (dose: 12.5 mg/kg/injection, schedule: Q01DX009 (ip), vehicle: saline) 101 % of control and 103 % of control; (dose: 25.0 mg/kg/injection, schedule: Q01DX009 (ip), vehicle: saline) 103 % of control and 104 % of control; (dose: 50.0 mg/kg/injection, schedule: Q01DX009 (ip), vehicle: saline) 98 % of control; (dose: 100.0 mg/kg/injection, schedule: Q01DX009 (ip), vehicle: saline) 95 % of control and 103 % of control; (dose: 200.0 mg/kg/injection, schedule: Q01DX009 (ip), vehicle: saline) 97 % of control; (dose: 400.0 mg/kg/injection, schedule: Q01DX009 (ip), vehicle: saline) 95 % of control and 104 % of control.
As for `Cc1cc(Cl)ccc1NS(=O)(=O)c1cccc([N+](=O)[O-])c1`, the T/C was 97 % of control under setting [9], 93 % of control under setting [10] and 90 % of control under setting [11].
With `Cc1[nH]c2ccccc2c1C1=CC(=O)c2ccccc2C1=O`, the T/C is 106 % of control under setting [9], 104 % of control under setting [10] and 104 % of control under setting [11].
For `Nc1ccc(Nc2c3ccccc3nc3ccccc23)cc1`, the T/C was 101 % of control under setting [4], 111 % of control under setting [5] and 114 % of control under setting [6].
`C=C(c1ccccc1)c1ccc(N(C)C)cc1`: the T/C under setting [9] was 100 % of control, the T/C under setting [10] is 91 % of control and the T/C under setting [11] is 95 % of control.
Turning to `CCOC(=O)NCC1CCC(CO)CC1` (stereo unspecified), the T/C is 95 % of control (dose: 100.0 mg/kg/injection, schedule: Q04DX002 (ip), vehicle: saline with Tween-80); 117 % of control (dose: 200.0 mg/kg/injection, schedule: Q04DX002 (ip), vehicle: saline with Tween-80); 98 % of control (dose: 400.0 mg/kg/injection, schedule: Q04DX002 (ip), vehicle: saline with Tween-80).
In the case of `CC1CCC(N=C2OCCN2N=O)CC1` (stereo unspecified), the T/C by setting is: (dose: 3.12 mg/kg/injection, schedule: Q01DX001 (ip), vehicle: water) 97 % of control; (dose: 6.25 mg/kg/injection, schedule: Q01DX001 (ip), vehicle: water) 96 % of control; (dose: 12.5 mg/kg/injection, schedule: Q01DX001 (ip), vehicle: water) 98 % of control; (dose: 25.0 mg/kg/injection, schedule: Q01DX001 (ip), vehicle: water) 94 % of control; (dose: 50.0 mg/kg/injection, schedule: Q01DX001 (ip), vehicle: water) 94 % of control; (dose: 100.0 mg/kg/injection, schedule: Q01DX001 (ip), vehicle: water) 108 % of control.
For `CC1[N-]C(/C=N/O)NC(C)N1.CC1[N-]C(/C=N/O)NC(C)N1.[Br][Ni+2][Br]` (stereo unspecified), the T/C reads like this: (dose: 5.0 mg/kg/injection, schedule: Q01DX001 (ip), vehicle: saline) 105 % of control; (dose: 10.0 mg/kg/injection, schedule: Q01DX001 (ip), vehicle: saline) 103 % of control; (dose: 20.0 mg/kg/injection, schedule: Q01DX001 (ip), vehicle: saline) 105 % of control; (dose: 40.0 mg/kg/injection, schedule: Q01DX001 (ip), vehicle: saline) 108 % of control; (dose: 75.0 mg/kg/injection, schedule: Q01DX001 (ip), vehicle: saline) 106 % of control; (dose: 80.0 mg/kg/injection, schedule: Q01DX001 (ip), vehicle: saline) 105 % of control.
For `CCOC(=O)C1CC=CCC1C(=O)OCC` (stereo unspecified), the T/C reads like this: (dose: 35.0 mg/kg/injection, schedule: Q04DX003 (ip), vehicle: other) 111 % of control; (dose: 65.0 mg/kg/injection, schedule: Q04DX003 (ip), vehicle: other) 94 % of control; (dose: 100.0 mg/kg/injection, schedule: Q04DX003 (ip), vehicle: other) 103 % of control; (dose: 150.0 mg/kg/injection, schedule: Q04DX003 (ip), vehicle: other) 100 % of control.
Take `O=S(O)C(=NC1CCCCC1)NC1CCCCC1`: the T/C is, setting by setting: under setting [12], 90 % of control; under setting [13], 90 % of control; under setting [14], 105 % of control.
Regarding `Cc1ccnc(=S)[nH]1.[Pd]`, the T/C reads like this: (dose: 3.12 mg/kg/injection, schedule: Q04DX003 (ip), vehicle: saline) 98 % of control; under setting [4], 102 % of control; under setting [5], 98 % of control; under setting [6], 98 % of control; under setting [15], 102 % of control; under setting [7], 102 % of control. For the same compound, the T/C under setting [8] is 104 % of control.
In the case of `O=C(O/N=C(\CN1CCOCC1)c1ccc(Cl)cc1)c1ccccc1`, the T/C was 86 % of control (dose: 100.0 mg/kg/injection, schedule: Q04DX003 (ip), vehicle: Klucel (hydroxypropylcellulose) (HPC)); 90 % of control (dose: 200.0 mg/kg/injection, schedule: Q04DX003 (ip), vehicle: Klucel (hydroxypropylcellulose) (HPC)); 94 % of control (dose: 400.0 mg/kg/injection, schedule: Q04DX003 (ip), vehicle: Klucel (hydroxypropylcellulose) (HPC)).
As for `Cc1cccc(Cl)c1NC(=O)C(C)N1CCCC1` (stereo unspecified), the T/C is 100 % of control under setting [5], 107 % of control under setting [6] and 104 % of control under setting [15].

The values are drawn from PubChem BioAssay AID256 (DTP/NCI, 2004).
